In general, pKi refers to −log10 of the Ki, conventionally taken in molar units.

Molecules are shown by their SMILES. pKi: −log10 of the molar value.

For test [1], the target named is T1, cloned human δ opioid receptor (Homo sapiens, UniProt P41143).
T1 construct: expressed in transfected cells
The test can be described thus: [3H]diprenorphine receptor binding, δ opioid receptor. To be noted: [3H]diprenorphine displacement; read-out: affinity (expressed as Ki value) to the δ opioid receptor. The protocol: (§1) Ki values were obtained by Cheng-Prusoff corrections of IC50 values.
(§2) After dilution in buffer A and homogenization as before, membrane proteins (10-80 μg) in 250 μL were added to mixtures containing test compound and [^3H]diprenorphine (0.5 to 1.0 nM, 40,000 to 50,000 dpm) in 250 μL of buffer A in 96-well deep-well polystyrene titer plates (Beckman). After incubation at room temperature for one hour, the samples were filtered through GF/B filters that had been presoaked in a solution of 0.5% (w/v) polyethylenimine and 0.1% (w/v) bovine serum albumin in water. The filters were rinsed 4 times with 1 mL of cold 50 mM Tris HCl, pH 7.8 and radioactivity remaining on the filters determined by scintillation spectroscopy. Nonspecific binding was determined by the minimum values of the titration curves and was confirmed by separate assay wells containing 10 μM naloxone.
(§3) To determine the equilibrium dissociation constant for the inhibitors (Ki), radioligand bound (cpm) in the presence of various concentrations of test compounds was measured. The concentration to give half-maximal inhibition (EC50) of radioligand binding was determined from a best nonlinear regression fit to the following equation,
(§4) The nonlinear regression fit was performed using the program Prism® (GraphPad Software, San Diego, Calif.). The Ki values were then determined from the EC50 values by the following equation, […]

In test [2] the target is T2, cloned human κ opioid receptor (Homo sapiens, UniProt P41145).
T2 construct: expressed in transfected cells
T2 sequence (P41145 whole entry): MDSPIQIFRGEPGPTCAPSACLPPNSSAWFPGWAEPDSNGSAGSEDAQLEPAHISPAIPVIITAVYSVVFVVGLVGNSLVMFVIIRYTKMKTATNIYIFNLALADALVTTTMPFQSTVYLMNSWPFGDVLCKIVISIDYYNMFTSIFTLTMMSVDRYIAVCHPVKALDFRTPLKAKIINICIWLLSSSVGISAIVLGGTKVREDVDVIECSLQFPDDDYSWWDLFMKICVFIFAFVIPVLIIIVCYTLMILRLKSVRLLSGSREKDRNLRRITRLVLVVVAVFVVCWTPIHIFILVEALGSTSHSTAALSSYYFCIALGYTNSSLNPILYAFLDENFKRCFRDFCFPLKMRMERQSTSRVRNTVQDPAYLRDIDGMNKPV
The test can be described thus: [3H]diprenorphine receptor binding, κ opioid receptor. To be noted: [3H]diprenorphine displacement; read-out: affinity (expressed as Ki value) to the κ opioid receptor. The protocol: as §1, §2, §3, §4

T1 sequence (P41143 whole entry): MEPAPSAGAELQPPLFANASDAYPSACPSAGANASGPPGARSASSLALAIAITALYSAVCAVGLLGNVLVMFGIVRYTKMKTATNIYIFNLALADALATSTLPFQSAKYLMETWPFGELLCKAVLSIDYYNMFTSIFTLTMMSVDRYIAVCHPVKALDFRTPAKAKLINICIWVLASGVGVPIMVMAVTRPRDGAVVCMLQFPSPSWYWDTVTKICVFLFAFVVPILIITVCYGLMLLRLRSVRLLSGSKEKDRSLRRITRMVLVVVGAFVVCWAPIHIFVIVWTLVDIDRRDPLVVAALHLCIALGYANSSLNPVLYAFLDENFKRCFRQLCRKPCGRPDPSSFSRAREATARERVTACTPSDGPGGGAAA

In the case of `C[C@H]1CN(C[C@H](Cc2ccccc2)C(=O)N[C@@H](CCCN)C(=O)O)CC[C@@]1(C)c1cccc(O)c1` [Example 28, 5-Amino-2(S)-{2(S)-benzyl-3-[4(R)-(3-hydroxy-phenyl)-3(R),4-dimethyl-piperidin-1-yl]-propionylamino}-pentanoic acid], the pKi in test [1] was 6.29; in test [2], 6.70.

Source of the values: patent US7820827B2, “Substituted piperidine compounds and methods of their use” (Adolor Corporation, priority 2003, dated 2010).
